{
  "source": "patent US4769368A",
  "about": "“2,3,4,8,9,9A-Hexahydro-4-aryl-1H-indeno(1,7-CD)azepines” (SmithKline Beckman Corporation, priority 1986, dated 1988)",
  "key": {"[1]": {"target": "T1, D1-dopamine sites (rat caudate) (Rattus norvegicus, UniProt P18901)", "T1 construct": "rat caudate; from tissue; host or cells: rat caudate", "T1 sequence (P18901 whole entry)": "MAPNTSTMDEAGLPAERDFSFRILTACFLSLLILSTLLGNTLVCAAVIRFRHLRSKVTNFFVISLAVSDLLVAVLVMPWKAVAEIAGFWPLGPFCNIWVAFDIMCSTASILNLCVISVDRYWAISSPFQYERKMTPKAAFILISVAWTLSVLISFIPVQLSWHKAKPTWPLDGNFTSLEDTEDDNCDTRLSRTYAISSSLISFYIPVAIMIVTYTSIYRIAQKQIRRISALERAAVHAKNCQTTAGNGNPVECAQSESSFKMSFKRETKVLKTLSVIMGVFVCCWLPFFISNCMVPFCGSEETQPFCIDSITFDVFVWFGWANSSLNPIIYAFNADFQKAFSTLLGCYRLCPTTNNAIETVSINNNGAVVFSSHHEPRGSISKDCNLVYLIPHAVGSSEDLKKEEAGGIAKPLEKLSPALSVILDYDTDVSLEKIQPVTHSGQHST", "assay": "Displacement of [3H] fenoldopam, rat caudate (D1) binding", "conditions": "in words", "source_text": "(§1) As an example of the D1 -dopamine specificity of the compounds of this invention, a species of formula I, 6,7-dihydroxy-2,3,4,8,9-9a-hexahydro-4-phenyl-1H-indeno[1,7-cd]azepine hydrobromide, was submitted to standard binding tests for D1 and D2 -dopamine sites, see K. Flaim, loc. cit. for testing protocols.\n[^3 H] fenoldopam rat caudate"}, "[2]": {"test_system": "D2-dopamine sites (bovine pituitary)", "assay": "Displacement of [3H] spiroperidol, bovine pituitary (D2) binding", "conditions": "at 10^-5 M, 10 µM", "source_text": "as §1\n[^3 H] spiroperidol bovine"}, "[3]": {"conditions": "in words; peripheral dopaminergic agent; cited from earlier work"}, "[4]": {"test_system": "dopamine D1 and D2 receptor", "conditions": "in words; U.S. Pat. No. 4,197,297; cited from earlier work"}},
  "note": "Counter-ions that a name gives are not always drawn.",
  "data": [
    {"compound": "Oc1cc2c3c(c1O)CC[C@H]3CNC[C@H]2c1ccccc1", "note": "(stereo in doubt) [cis, cis-6,7-dihydroxy-2,3,4,8,9,9a-hexahydro-4-phenyl-1H-indeno[1-7-cd]azepinehydrobromide]", "values": [
      {"measurement": "potency and selectivity for D1 dopamine sites", "setting": "[1]", "value": "very potent and selective"},
      {"measurement": "Displacement of [3H] spiroperidol bovine pituitary (D2)", "setting": "[2]", "value": 14, "unit": "%"}
    ]},
    {"compound": "Br.Oc1cc2c3c(c1O)CC[C@@H]3CNC[C@@H]2c1ccccc1", "note": "(stereo in doubt) [trans, trans-6,7-dihydroxy-2,3,4,8,9,9a-hexahydro-4-phenyl-1H-indeno[1,7-cd]azepine hydrobromide]", "values": [
      {"measurement": "Displacement of [3H] spiroperidol bovine pituitary (D2)", "setting": "[2]", "value": 0, "unit": "%"}
    ]},
    {"compound": "Oc1ccc(C2CNCCc3c2cc(O)c(O)c3Cl)cc1", "note": "(centres unmarked) [fenoldopam]", "values": [
      {"measurement": "described activity", "setting": "[3]", "value": "renal dilating, anti-hypertensive, anti-shock and anti-congestive heart failure activity"},
      {"measurement": "agonist activity", "setting": "[4]", "value": "D1 and some D2 agonist activity"}
    ]}
  ]
}
